Test results taken from patent publication US12534452B2, “N-(1H-imidazol-2-yl)benzamide compound and pharmaceutical composition comprising the same as active ingredient” (KAINOS MEDICINE, INC., priority 2019, dated 2026).

Biological target: IRAK4 (Homo sapiens (Human), UniProt Q9NWZ3)
Experiment: In vitro IRAK4 phosphorylation activity assay
Type: biochemical
Settings: [γ-33P]-ATP, myelin basic protein substrate, 40 minutes at room temperature; categories
Method in brief: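 Radiometric filter-binding assay, no compound–kinase preincubation; 8 mM MOPS pH 7.0, 0.2 mM EDTA, 10 mM Mg acetate, 0.33 mg/mL myelin basic protein substrate, [γ-33P]-ATP. Reaction 40 min at room temperature, stopped with phosphoric acid, scintillation counting; IC50 reported in categories.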

IRAK4, sequence (Q9NWZ3 whole entry): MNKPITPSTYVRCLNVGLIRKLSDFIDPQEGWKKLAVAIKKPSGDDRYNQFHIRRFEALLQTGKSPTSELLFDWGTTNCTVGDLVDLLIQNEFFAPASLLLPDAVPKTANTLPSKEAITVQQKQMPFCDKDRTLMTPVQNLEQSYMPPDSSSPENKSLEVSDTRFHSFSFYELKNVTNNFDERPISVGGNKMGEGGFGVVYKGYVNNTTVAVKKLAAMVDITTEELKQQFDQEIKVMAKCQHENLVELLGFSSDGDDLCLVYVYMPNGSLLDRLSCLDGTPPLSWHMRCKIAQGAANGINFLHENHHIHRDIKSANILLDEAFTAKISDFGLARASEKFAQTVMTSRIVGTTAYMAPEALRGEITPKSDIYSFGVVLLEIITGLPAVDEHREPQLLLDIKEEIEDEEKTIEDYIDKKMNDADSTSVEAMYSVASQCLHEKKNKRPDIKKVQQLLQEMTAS

SMILES	IC50 [nM]
O=C(CCCc1cn(-c2ccccc2)c(NC(=O)c2cccc(-c3ccc4ncsc4c3)c2)n1)NC1CC1 [Example 279, 3-(benzo[d]thiazol-6-yl)-N-(4-(4-(cyclopropylamino)-4-oxobutyl)-1-phenyl-1H-imidazol-2-yl)benzamide]	< 50
Cn1cc(-c2cccc(C(=O)Nc3nc(CCCCC(=O)N4CCC(N)CC4)cn3-c3ccccc3)c2)cn1 [Example 213, N-(4-(5-(4-aminopiperidin-1-yl)-5-oxopentyl)-1-phenyl-1H-imidazol-2-yl)-3-(1-methyl-1H-pyrazol-4-yl)benzamide]	< 50
CNC(=O)Cc1cn(-c2ccccc2)c(NC(=O)c2cccnc2)n1 [Example 51, N-(4-(2-(methylamino)-2-oxoethyl)-1-phenyl-1H-imidazol-2-yl)nicotinamide]	> 100
Cn1cc(-c2cccc(C(=O)Nc3nc(CCCC(=O)NCC4CCOC4)cn3-c3ccccc3)c2)cn1 (stereo not shown) [Example 180, 3-(1-methyl-1H-pyrazol-4-yl)-N-(4-(4-oxo-4-(((tetrahydrofuran-3-yl)methyl)amino)butyl)-1-phenyl-1H-imidazol-2-yl)benzamide]	< 50
COC[C@@H]1CCCN1NC(=O)CCCCc1cn(-c2ccccc2)c(NC(=O)c2cccc(-c3cn[nH]c3)c2)n1 [Example 84, (S)—N-(4-(5-((2-(methoxymethyl)pyrrolidin-1-yl)amino)-5-oxopentyl)-1-phenyl-1H-imidazol-2-yl)-3-(1H-pyrazol-4-yl)benzamide]	< 50
CNC(=O)Cc1cn(-c2ccccc2)c(NC(=O)c2cccc(-c3cn[nH]c3)c2)n1 [Example 41, N-(4-(2-(methylamino)-2-oxoethyl)-1-phenyl-1H-imidazol-2-yl)-3-(1H-pyrazol-4-yl)benzamide]	> 100
Cn1ncc2cc(-c3cccc(C(=O)Nc4nc(CCCCCCN5CCCCC5)cn4-c4ccccc4)c3)ccc21 [Example 263, 3-(1-methyl-1H-indazol-5-yl)-N-(1-phenyl-4-(6-(piperidin-1-yl)hexyl)-1H-imidazol-2-yl)benzamide]	50 to 100
O=C(CCCCc1cn(-c2ccccc2)c(NC(=O)c2cccc(-c3cn[nH]c3)c2)n1)Nc1ccccc1 [Example 76, N-(4-(5-oxo-5-(phenylamino)pentyl)-1-phenyl-1H-imidazol-2-yl)-3-(1H-pyrazol-4-yl)benzamide]	< 50

Further lines, results first:

IC50 [nM]	SMILES
< 50	COC[C@H]1CCCN1C(=O)CCCCCc1cn(-c2ccccc2)c(NC(=O)c2cccc(-c3cn[nH]c3)c2)n1 [Example 101, (R)—N-(4-(6-(2-(methoxymethyl)pyrrolidin-1-yl)-6-oxohexyl)-1-phenyl-1H-imidazol-2-yl)-3-(1H-pyrazol-4-yl)benzamide]
< 50	CC1(C)CCN(C(=O)CCc2cn(-c3ccccc3)c(NC(=O)c3cccc(-c4cn[nH]c4)c3)n2)CC1 [Example 35, N-(4-(3-(4,4-dimethylpiperidin-1-yl)-3-oxopropyl)-1-phenyl-1H-imidazol-2-yl)-3-(1H-pyrazol-4-yl)benzamide]
< 50	O=C(CCCCc1cn(-c2ccccc2)c(NC(=O)c2cccc(-c3cn[nH]c3)c2)n1)NC1CC1 [Example 88, N-(4-(5-(cyclopropylamino)-5-oxopentyl)-1-phenyl-1H-imidazol-2-yl)-3-(1H-pyrazol-4-yl)benzamide]
< 50	Cn1cc(-c2cccc(C(=O)Nc3nc(CCCC(=O)NN4CCCC4)cn3-c3ccccc3)c2)cn1 [Example 151, 3-(1-methyl-1H-pyrazol-4-yl)-N-(4-(4-oxo-4-(pyrrolidin-1-ylamino)butyl)-1-phenyl-1H-imidazol-2-yl)benzamide]
< 50	CN1CCN(C(=O)CCc2cn(-c3ccccc3)c(NC(=O)c3cccc(-c4cnn(C)c4)c3)n2)CC1 [Example 194, 3-(1-methyl-1H-pyrazol-4-yl)-N-(4-(3-(4-methylpiperazin-1-yl)-3-oxopropyl)-1-phenyl-1H-imidazol-2-yl)benzamide]
